This is an account of results in US20140205537A1, “LRRK2 INHIBITORS” (ZENOBIA THERAPEUTICS, INC., priority 2011, published 2014).

In test [1] the target is DCK2 (Homo sapiens, UniProt Q8N568). Nature of the test: Kinase selectivity panel: DCK2. Format: biochemical.
Test [2] concerns the target CAMK2D (Homo sapiens, UniProt Q13557). Nature of the test: Kinase selectivity panel: CAMK2D. Format: biochemical.
Test [3] concerns the target T1, IRAK4 (Homo sapiens, UniProt Q9NWZ3).
T1 sequence (Q9NWZ3 1-460): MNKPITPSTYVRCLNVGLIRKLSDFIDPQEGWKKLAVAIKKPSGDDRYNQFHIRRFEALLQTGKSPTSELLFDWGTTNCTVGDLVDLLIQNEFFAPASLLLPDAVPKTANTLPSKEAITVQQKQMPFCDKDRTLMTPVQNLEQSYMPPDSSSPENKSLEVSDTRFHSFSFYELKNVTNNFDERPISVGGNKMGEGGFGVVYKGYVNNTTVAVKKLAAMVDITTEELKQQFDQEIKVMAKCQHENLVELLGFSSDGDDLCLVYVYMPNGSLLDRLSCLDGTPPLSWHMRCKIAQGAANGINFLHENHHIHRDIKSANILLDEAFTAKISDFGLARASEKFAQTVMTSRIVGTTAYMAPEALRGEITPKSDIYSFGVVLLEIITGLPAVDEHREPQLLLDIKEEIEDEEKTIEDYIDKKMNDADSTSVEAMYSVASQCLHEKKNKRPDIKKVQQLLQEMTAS
Nature of the test: Kinase selectivity panel: IRAK4. In kind it is biochemical.

Test [4] deals with MEK1 (Homo sapiens, UniProt Q02750). In words: Kinase selectivity panel: MEK1. In kind it is biochemical.
Chain of MEK1 (Q02750 whole entry, species assumed): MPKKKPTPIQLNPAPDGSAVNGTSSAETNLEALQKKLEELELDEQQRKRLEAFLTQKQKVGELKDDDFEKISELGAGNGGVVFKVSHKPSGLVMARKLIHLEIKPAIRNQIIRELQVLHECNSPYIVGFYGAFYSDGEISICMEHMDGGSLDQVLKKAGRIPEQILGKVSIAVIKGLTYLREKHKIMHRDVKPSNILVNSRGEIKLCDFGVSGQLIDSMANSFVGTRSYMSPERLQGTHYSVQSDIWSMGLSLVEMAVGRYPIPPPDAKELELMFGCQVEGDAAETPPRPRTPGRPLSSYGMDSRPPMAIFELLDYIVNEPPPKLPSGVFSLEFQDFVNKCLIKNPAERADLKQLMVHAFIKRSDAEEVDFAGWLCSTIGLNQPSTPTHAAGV
For test [5], the target named is HGK (Homo sapiens, UniProt O95819). In words: Kinase selectivity panel: HGK. In kind it is biochemical.
Chain of HGK (O95819 whole entry, species assumed): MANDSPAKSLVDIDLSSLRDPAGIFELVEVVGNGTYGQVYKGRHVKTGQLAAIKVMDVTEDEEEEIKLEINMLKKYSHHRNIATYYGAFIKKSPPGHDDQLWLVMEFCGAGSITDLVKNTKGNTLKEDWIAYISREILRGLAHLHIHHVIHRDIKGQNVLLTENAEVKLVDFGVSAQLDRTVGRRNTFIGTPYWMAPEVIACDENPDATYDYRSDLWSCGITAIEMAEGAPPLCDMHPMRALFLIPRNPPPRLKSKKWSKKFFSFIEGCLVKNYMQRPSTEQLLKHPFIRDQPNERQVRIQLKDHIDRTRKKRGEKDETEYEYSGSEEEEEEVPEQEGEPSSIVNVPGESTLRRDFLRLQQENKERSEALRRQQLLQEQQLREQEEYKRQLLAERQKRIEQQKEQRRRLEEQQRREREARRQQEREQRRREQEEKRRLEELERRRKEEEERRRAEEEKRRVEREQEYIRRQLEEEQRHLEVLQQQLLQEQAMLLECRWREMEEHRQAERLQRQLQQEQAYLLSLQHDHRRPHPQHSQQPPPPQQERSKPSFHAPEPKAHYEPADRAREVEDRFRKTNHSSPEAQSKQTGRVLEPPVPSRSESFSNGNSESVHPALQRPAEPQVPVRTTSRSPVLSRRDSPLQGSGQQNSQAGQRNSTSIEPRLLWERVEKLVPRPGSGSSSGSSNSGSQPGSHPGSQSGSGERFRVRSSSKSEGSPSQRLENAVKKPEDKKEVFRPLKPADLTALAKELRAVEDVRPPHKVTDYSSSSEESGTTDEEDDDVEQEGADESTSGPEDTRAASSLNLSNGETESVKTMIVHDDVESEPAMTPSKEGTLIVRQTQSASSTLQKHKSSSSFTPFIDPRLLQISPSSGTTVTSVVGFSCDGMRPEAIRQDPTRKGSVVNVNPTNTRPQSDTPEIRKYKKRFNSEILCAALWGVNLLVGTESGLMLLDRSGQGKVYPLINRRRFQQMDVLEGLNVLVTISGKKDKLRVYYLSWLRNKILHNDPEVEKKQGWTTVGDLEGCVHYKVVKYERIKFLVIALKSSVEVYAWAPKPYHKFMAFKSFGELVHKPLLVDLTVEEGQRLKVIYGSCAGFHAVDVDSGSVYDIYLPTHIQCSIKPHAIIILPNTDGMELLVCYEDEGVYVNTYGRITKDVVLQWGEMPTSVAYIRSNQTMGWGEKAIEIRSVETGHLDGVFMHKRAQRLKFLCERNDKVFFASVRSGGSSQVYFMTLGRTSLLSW
Test [6] has as its target HER2 (Homo sapiens, UniProt P04626). In words: Kinase selectivity panel: HER2. Format: biochemical.
The target in test [7] is G2019S LRRK2 (Homo sapiens, UniProt Q5S007, G2019S). In words: G2019S LRRK2 inhibition (Invitrogen SelectScreen / TR-FRET biochemical assay). More on the design: The protein construct used in the assay is GST tagged 969-2527; GST; purchased Invitrogen. To be noted: numeric value. Here is the method:
IC50s were determined using Invitrogen's SelectScreen® Profiling Service for wild type and LRRK2 G2019S. The test compounds were screened in 1% DMSO (final) in the well.
a) % inhibition is measured at one concentration
b) a 10-point titration is run to ensure the kinase is inhibited within an expected IC50 range
Biochemical Assay Protocol:
Compound potency against wild-type and G2019S LRRK2 is measured via TR-FRET. The IC50, the amount of inhibitor required to inhibitor 50% of the protein under the given assay conditions, is determined by varying the amount of compound (500-0.001 uM) by serial dilution with 12-data points per compound, in duplicate. The substrate (Fluorescein-GAGRLGRDKYKTLRQIRQ) and ATP is fixed at 0.8 uM and 57 uM (KmATP), respectively. All assays are run in Corning low volume […] round bottomed plates. The assay is run in 50 mM Tris-HCl pH8.5, 10 mM MgCl2, 0.01% Brij-35, 1 mM EGTA, 2 mMDTT. The TR-FRET assay is an end-point assay where the reaction with protein, substrate, inhibitor and ATP is incubated for 1 hour at room temperature. The compound is pre-incubated with the protein and substrate prior to initiating the reaction with ATP. Phospho-transfer is detected using a Terbium labeled anti-pLRRKtide that binds to phosphorylated substrate creating FRET transfer when excited at 340 nm. Emissions signals are taken for terbium and FRET induced fluorescein at 495 nm and 520 nm, respectively, using a Biotek Synergy 2 spectrophotometer. The dose response is determined by plotting the emission ratio of 520/495 against the log of the inhibitor concentration. The maximum inhibition and non-inhibition controls is run on all plates. Staurosporine is used as the positive inhibition control and DMSO is used as the negative point control. A 12-point dose curve of Staurosporine is run as a dosing control. The IC50 is determined to be the inhibitor concentration at which 50% inhibition is achieved. The protein construct used in the assay is GST tagged 969-2527. The protein is commercially available from Invitrogen.
Alternatively, compounds of formulas (II), (I), (I-A), (I-B), (I-C), (I-D), (I-D-1), (I-D-2), (I-E), (I-F), (I-G), (I-H), (I-I), (I-I-1), (I-I-2), (I-J), (I-K), (I-L), (I-M), (I-N), (I-Z-1), (I-Z-2), (I-Z-2-a), (I-Z-2-b), (I-Z-2-c), (I-Z-2-d), (I-Z-3-a), (I-Z-3-b), (I-Z-3-c), or (I-Z-3-d) were tested using Invitrogen's SelectScreen® Profiling Service for LRRK2 G2019S.
(In general: Time-resolved FRET reads energy transfer from a long-lived donor to a nearby acceptor.)

In test [8] the target is CDK1/cyclinB (Homo sapiens, UniProt P06493). Nature of the test: Kinase selectivity panel: CDK1/cyclinB. In kind it is biochemical.
Test [9] has as its target KDR (Homo sapiens, UniProt P35968). Nature of the test: Kinase selectivity panel: KDR. Format: biochemical.
Test [10] addresses ABL1 (Homo sapiens, UniProt P00519). Nature of the test: Kinase selectivity panel: ABL1. In kind it is biochemical.
For test [11], the target named is T2, AURKA (Homo sapiens, UniProt O14965).
T2 sequence (O14965 1-403): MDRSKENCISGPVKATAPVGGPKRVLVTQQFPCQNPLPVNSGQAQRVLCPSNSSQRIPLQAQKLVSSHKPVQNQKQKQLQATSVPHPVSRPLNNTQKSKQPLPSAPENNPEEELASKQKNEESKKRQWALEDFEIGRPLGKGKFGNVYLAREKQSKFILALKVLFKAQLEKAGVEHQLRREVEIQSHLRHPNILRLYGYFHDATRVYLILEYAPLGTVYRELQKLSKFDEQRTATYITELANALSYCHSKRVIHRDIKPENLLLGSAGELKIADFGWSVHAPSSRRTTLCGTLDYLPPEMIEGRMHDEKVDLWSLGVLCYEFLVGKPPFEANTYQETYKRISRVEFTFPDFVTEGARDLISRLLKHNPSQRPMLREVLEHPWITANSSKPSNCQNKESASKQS
Nature of the test: Kinase selectivity panel: AURKA. Format: biochemical.

A word on the inhibition: it is the change of the read-out against control, counted positive when it falls. As a reminder, the IC50 is the midpoint of a concentration-inhibition curve.

Structures are written as SMILES.

Chain of ABL1 (P00519 whole entry, species assumed): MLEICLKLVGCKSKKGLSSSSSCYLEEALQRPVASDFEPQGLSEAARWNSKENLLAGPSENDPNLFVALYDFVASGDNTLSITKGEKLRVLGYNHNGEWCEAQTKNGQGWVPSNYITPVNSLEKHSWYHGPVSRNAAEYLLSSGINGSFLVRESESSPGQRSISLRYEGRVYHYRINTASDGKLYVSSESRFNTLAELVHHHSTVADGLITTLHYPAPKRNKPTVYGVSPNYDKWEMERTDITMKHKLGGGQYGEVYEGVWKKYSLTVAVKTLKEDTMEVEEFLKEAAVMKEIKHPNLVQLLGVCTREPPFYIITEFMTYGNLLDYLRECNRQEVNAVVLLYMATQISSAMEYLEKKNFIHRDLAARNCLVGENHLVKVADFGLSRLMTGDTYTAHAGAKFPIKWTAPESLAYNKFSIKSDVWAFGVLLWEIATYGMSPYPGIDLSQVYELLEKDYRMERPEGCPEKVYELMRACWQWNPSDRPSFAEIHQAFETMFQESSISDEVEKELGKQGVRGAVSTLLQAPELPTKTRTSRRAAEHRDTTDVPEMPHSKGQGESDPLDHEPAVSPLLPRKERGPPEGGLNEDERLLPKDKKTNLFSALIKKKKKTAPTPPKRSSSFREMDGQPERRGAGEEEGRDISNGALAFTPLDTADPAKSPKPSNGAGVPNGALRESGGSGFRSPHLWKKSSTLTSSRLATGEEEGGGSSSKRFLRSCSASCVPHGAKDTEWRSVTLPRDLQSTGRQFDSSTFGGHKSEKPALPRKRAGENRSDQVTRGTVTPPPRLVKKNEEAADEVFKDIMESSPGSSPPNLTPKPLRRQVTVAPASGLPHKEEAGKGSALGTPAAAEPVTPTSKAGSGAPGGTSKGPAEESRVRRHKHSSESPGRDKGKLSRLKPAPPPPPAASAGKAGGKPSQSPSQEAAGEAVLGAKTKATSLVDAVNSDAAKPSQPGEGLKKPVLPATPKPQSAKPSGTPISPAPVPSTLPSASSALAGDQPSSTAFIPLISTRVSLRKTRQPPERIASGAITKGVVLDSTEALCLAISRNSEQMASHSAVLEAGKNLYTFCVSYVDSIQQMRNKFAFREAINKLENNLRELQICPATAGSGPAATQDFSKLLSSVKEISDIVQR
Chain of CAMK2D (Q13557 whole entry, species assumed): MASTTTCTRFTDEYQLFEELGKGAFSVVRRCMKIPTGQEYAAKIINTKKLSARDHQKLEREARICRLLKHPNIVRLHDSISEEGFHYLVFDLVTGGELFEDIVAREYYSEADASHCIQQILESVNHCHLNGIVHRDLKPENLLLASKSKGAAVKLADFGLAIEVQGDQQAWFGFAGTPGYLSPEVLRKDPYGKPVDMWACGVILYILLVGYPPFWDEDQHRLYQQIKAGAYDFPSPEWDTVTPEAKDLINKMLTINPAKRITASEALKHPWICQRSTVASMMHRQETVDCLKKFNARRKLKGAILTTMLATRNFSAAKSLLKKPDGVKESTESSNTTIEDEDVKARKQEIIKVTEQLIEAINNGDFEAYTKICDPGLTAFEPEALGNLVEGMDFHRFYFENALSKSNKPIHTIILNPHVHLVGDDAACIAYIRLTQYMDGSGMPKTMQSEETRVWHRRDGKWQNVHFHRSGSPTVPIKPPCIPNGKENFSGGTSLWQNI
Chain of G2019S LRRK2 (Q5S007 969-2527 G2019S): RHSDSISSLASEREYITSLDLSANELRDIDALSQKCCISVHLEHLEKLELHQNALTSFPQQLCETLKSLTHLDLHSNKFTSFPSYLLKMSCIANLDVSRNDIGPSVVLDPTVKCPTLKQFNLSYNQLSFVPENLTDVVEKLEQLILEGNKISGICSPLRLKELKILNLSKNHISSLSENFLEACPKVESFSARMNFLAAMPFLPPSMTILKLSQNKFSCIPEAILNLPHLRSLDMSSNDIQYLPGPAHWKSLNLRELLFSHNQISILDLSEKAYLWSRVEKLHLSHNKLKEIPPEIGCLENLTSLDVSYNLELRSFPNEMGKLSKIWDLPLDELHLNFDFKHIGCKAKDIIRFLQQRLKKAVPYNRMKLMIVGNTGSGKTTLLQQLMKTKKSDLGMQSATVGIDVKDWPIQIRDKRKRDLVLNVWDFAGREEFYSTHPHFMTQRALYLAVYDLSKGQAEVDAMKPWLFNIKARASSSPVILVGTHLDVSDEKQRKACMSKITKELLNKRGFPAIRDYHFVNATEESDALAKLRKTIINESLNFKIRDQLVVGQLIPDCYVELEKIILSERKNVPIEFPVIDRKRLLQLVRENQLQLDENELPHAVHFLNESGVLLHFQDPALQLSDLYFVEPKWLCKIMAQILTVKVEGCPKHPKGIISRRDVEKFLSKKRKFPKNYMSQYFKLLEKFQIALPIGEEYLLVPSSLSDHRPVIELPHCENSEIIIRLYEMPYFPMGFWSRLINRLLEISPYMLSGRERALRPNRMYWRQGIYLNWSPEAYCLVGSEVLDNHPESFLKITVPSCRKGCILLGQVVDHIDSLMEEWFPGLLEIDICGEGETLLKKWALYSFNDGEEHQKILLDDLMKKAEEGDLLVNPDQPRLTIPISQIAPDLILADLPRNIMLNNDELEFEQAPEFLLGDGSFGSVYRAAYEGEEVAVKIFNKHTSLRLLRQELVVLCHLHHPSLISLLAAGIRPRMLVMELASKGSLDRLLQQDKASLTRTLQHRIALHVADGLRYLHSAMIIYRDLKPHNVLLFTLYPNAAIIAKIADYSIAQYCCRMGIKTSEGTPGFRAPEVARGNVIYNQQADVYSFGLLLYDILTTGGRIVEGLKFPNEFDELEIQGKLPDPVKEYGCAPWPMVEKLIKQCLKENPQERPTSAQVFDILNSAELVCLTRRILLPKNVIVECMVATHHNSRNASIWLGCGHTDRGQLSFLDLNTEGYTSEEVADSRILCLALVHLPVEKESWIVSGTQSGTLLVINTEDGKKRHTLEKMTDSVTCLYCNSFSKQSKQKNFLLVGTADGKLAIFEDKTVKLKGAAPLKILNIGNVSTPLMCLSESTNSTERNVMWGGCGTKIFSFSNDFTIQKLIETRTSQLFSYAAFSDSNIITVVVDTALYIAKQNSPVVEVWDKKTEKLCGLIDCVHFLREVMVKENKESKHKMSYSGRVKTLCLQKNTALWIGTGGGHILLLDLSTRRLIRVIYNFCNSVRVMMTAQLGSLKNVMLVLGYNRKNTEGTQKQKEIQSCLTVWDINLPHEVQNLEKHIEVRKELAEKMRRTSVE

Turning to `COc1ccc2c(c1)/C(=C/c1cnc(C3CCOCC3)[nH]1)C(=O)N2` [Compound 18, (3Z)-5-methoxy-3-[(2-tetrahydropyran-4-yl-1H-imidazol-5-yl)methylene]indolin-2-one], the inhibition at 0.1 µM in test [1] was 8%; in test [2] (@0.1 uM), 41%; in [3] (@0.1 uM), -1%; in test [4], 16%; in [5], -18%; in test [6] it was 4%. In addition, the inhibition at 0.1 µM in test [8] was 0%; in test [9], 1%; in test [10] (@0.1 uM), 5%; in test [11] (@0.1 uM) it was -1%. In addition, the IC50 in [2] was 276 nM; in test [3] it was above 10000 nM; in [7], 5.5 nM; in test [10] it was above 10000 nM; in test [11], above 10000 nM.
